{"source": "patent US8536152B2", "about": "“Methods of using diacerein as an adjunctive therapy for diabetes” (TWi Biotechnology, Inc., priority 2010, dated 2013)", "key": {"[1]": {"tested_on": "type 2 (or type II) diabetes rodent models", "settings": "type 2 diabetes rodent models; cited from earlier work"}, "[2]": {"tested_on": "patients with type 2 diabetes inadequately controlled by current oral antidiabetic therapy", "experiment": "Randomized, double-blind, placebo-controlled study of add-on diacerein: glycosylated hemoglobin (HbA1c)", "type": "in vivo, human", "excerpt": "Primary Endpoints: To compare the efficacy of add-on diacerein with no add-on treatment (placebo) on glycosylated hemoglobin (HbA1c) after 24-week double-blind treatment in type 2 DM patients inadequately controlled by previous antidiabetic therapy.\n(§1) Subjects: Male or female type 2 DM patients (BMI≦35 kg/m^2) on a stable oral hypoglycemic […] for at least 3 months prior to screening visit. The hemoglobin A1c (HbA1c) measurements taken at a screening visit were between 7% and 12%. Patients enrolled in the study were receiving one or more oral antihyperglycemic agents including sulfonylurea, biguanides, alpha-glucosidase inhibitors, thiazolidinediones (TZDs) and nonsulfonylurea insulin secretagogues.\n(§2) Procedure: This was a randomized, double-blind, parallel comparison study comparing 50 mg diacerein versus placebo in patients with type 2 DM inadequately controlled by previous antidiabetic therapy. The starting dose of diacerein was 50 mg once daily every morning for 4 weeks and could be adjusted up to 50 mg twice daily (morning and evening) if patients had become accustomed to the medication. Patients were screened for eligibility four weeks (week-4) prior to entry at baseline (week 0). During this 4-week screening period, the participants continued their previous antidiabetic therapy, dietary habits and other lifestyle habits. In order to be eligible for randomization following the 4-week screening period, patients must not have experienced hypoglycemia and must have had two fasting plasma glucose (FPG) measurements of between 135 to 250 mg/dL. At the end of the screening period, patients who met eligibility requirements were randomly assigned to receive diacerein 50 mg or placebo twice a day for 24 weeks observation. During treatment/observation period, the previous antidiabetic therapy including the class and/or dosage was not changed. Patients were asked to attend the center on eight occasions (screening, baseline, week 4, 8, 12, 16, 20 and 24) during the trial. The total study duration including the screening period for each patient was 28 weeks. There was a two weeks follow-up period after completion of the treatment/observation. […]\nStatistical method(s) for efficacy/safety evaluations: The difference (diacerein minus placebo) of HbA1c reduction between the two treatment groups was analyzed by analysis of covariance (ANCOVA) with baseline value as covariate. The corresponding 95% confidence interval was calculated. Within-group changes were also analyzed, with paired t test used to evaluate differences from baseline in each treatment group.\nFor the efficacy parameters, descriptive statistics were presented by visit. […] The area under the concentration-time curve (AUC) was used for evaluating the parameters measured by oral glucose tolerance test. […]"}, "[3]": {"tested_on": "patients with type 2 diabetes inadequately controlled by current oral antidiabetic therapy", "experiment": "Same clinical study: fasting plasma glucose", "type": "in vivo, human", "settings": "at 24 weeks", "excerpt": "as §1\nProcedure: This was a randomized, double-blind, parallel comparison study comparing 50 mg diacerein versus placebo in patients with type 2 DM inadequately controlled by previous antidiabetic therapy. The starting dose of diacerein was 50 mg once daily every morning for 4 weeks and could be adjusted up to 50 mg twice daily (morning and evening) if patients had become accustomed to the medication. Patients were screened for eligibility four weeks (week-4) prior to entry at baseline (week 0). During this 4-week screening period, the participants continued their previous antidiabetic therapy, dietary habits and other lifestyle habits. […]\n(§3) For the efficacy parameters, descriptive statistics were presented by visit. […] The area under the concentration-time curve (AUC) was used for evaluating the parameters measured by oral glucose tolerance test."}, "[4]": {"tested_on": "patients with type 2 diabetes inadequately controlled by current oral antidiabetic therapy", "experiment": "Same clinical study: homeostatic model assessment (HOMA) beta cell function", "type": "in vivo, human", "excerpt": "as §1\nas §2, with “weeks.” for “weeks. There was a two weeks follow-up period after completion of the treatment/observation.”\nas §3"}, "[5]": {"tested_on": "patients with type 2 diabetes inadequately controlled by current oral antidiabetic therapy", "experiment": "Same clinical study: cardiovascular safety endpoints (body weight, blood pressure, pulse rate, lipid profiles)", "type": "in vivo, human", "parameters": "Total Cholesterol, Change / Triglyceride, Change / HDL, Change / LDL, Change: unit not given here", "excerpt": "as §1\n(§4) Procedure: This was a randomized, double-blind, parallel comparison study comparing 50 mg diacerein versus placebo in patients with type 2 DM inadequately controlled by previous antidiabetic therapy. The starting dose of diacerein was 50 mg once daily every morning for 4 weeks and could be adjusted up to 50 mg twice daily (morning and evening) if patients had become accustomed to the medication. Patients were screened for eligibility four weeks (week-4) prior to entry at baseline (week 0). During this 4-week screening period, the participants continued their previous antidiabetic therapy, dietary habits and other lifestyle habits. In order to be eligible for randomization following the 4-week screening period, patients must not have experienced hypoglycemia and must have had two fasting plasma glucose (FPG) measurements of between 135 to 250 mg/dL. At the end of the screening period, patients who met eligibility requirements were randomly assigned to receive diacerein 50 mg or placebo twice a day for 24 weeks observation. During treatment/observation period, the previous antidiabetic therapy including the class and/or dosage was not changed. Patients were asked to attend the center on eight occasions (screening, baseline, week 4, 8, 12, 16, 20 and 24) during the trial. The total study duration including the screening period for each patient was 28 weeks. There was a two weeks follow-up period after completion of the treatment/observation. During this follow-up period, patients were followed for adverse events.\nFor the efficacy parameters, descriptive statistics were presented by visit. Statistical analysis was performed to assess the mean change from baseline. The area under the concentration-time curve (AUC) was used for evaluating the parameters measured by oral glucose tolerance test."}, "[6]": {"tested_on": "patients with type 2 diabetes inadequately controlled by current oral antidiabetic therapy", "experiment": "Same clinical study: adverse events", "type": "in vivo, human", "protocol": "as §4\nAdverse events were summarized according to the Medical Dictionary for Regulatory Activities (MedDRA) adverse event dictionary. The tabulations counted the number of patients reporting individual preferred term adverse events and the total number of patients reporting at least one adverse event per system organ class. If appropriate, the incidence of adverse events was compared for each of the two treatment groups using Fisher's Exact test."}, "[7]": {"settings": "Week 24, N 28, in mg/dL (unit assumed)"}, "[8]": {"settings": "Week 24, N 28, in mmHg (unit assumed)"}}, "data": [{"smiles": "O=C(O)c1cc(O)c2c(c1)C(=O)c1cccc(O)c1C2=O", "note": "[Rhein, 9,10-dihydro-4,5-dihydroxy-9,10-dioxo-2-anthracenecarboxylic acid]", "values": [{"measurement": "blood glucose concentration control", "setting": "[1]", "value": "control the blood glucose concentration"}]}, {"smiles": "CC(=O)Oc1cccc2c1C(=O)c1c(OC(C)=O)cc(C(=O)O)cc1C2=O", "note": "[diacerein, 4,5-bis(acetyloxy)-9,10-dioxo-2-anthracene carboxylic acid]", "values": [{"measurement": "between-group difference in HbA1c change (diacerein vs placebo)", "setting": "[2]; 24 weeks, P=0.0158", "value": 0.63, "unit": "percentage point"}, {"measurement": "average absolute difference in HbA1c levels between baseline and 24 weeks (reduction)", "setting": "[2]; add-on diacerein 50 mg twice a day, 24 weeks, within group", "value": 0.63, "unit": "percentage point"}, {"measurement": "HbA1c absolute reduction versus the placebo group", "setting": "[2]; after 20 weeks, P=0.0223", "value": 0.60, "unit": "%"}, {"measurement": "number of patients who had any reduction in HbA1c levels", "setting": "[2]; at 24 weeks", "value": "20 of 26"}, {"measurement": "fasting plasma glucose levels versus placebo group", "setting": "[3]", "value": "consistently lower"}, {"measurement": "within-group change from baseline in HOMA-BETA", "setting": "[4]; over 24 weeks", "value": "significant"}, {"measurement": "HOMA beta cell function (HOMA-BETA) course over treatment", "setting": "[4]; over the course of treatment", "value": "continual improvement"}, {"measurement": "HOMA-BETA", "setting": "[4]; week 24", "value": 56.26}, {"measurement": "pulse rate, Mean ± SD", "setting": "[5]; Week 24, N 28", "value": "77.18 ± 10.22"}, {"measurement": "HDL, Mean ± SD", "setting": "[5]; [7]", "value": "42.25 ± 10.40"}, {"measurement": "LDL, Mean ± SD", "setting": "[5]; [7]", "value": "91.64 ± 27.28"}, {"measurement": "Total Cholesterol, Mean ± SD", "setting": "[5]; [7]", "value": "164.61 ± 30.09"}, {"measurement": "Triglyceride, Mean ± SD", "setting": "[5]; [7]", "value": "159.18 ± 97.07"}, {"measurement": "Systolic blood pressure, Mean ± SD", "setting": "[5]; [8]", "value": "130.32 ± 16.85"}, {"measurement": "diastolic blood pressure, Mean ± SD", "setting": "[5]; [8]", "value": "78.86 ± 8.20"}, {"measurement": "HDL, Change", "setting": "[5]; Week 24 vs baseline", "value": "−0.96 ± 10.27"}, {"measurement": "LDL, Change", "setting": "[5]; Week 24 vs baseline", "value": "−6.09 ± 19.75"}, {"measurement": "Systolic blood pressure, Change", "setting": "[5]; Week 24 vs baseline", "value": "−0.25 ± 14.38"}, {"measurement": "Total Cholesterol, Change", "setting": "[5]; Week 24 vs baseline", "value": "−8.46 ± 32.20"}, {"measurement": "Triglyceride, Change", "setting": "[5]; Week 24 vs baseline", "value": "−7.57 ± 98.79"}, {"measurement": "diastolic blood pressure, Change", "setting": "[5]; Week 24 vs baseline", "value": "−1.14 ± 8.78"}, {"measurement": "pulse rate, Change", "setting": "[5]; Week 24 vs baseline", "value": "1.46 ± 9.00"}, {"measurement": "risks of heart attack and cardiovascular disorders", "setting": "[5]; adding diacerein to current anti-diabetic treatment", "value": "did not increase"}, {"measurement": "differences between treatment groups in body weight, blood pressure, pulse rate and lipid profiles", "setting": "[5]; between baseline levels and levels at week 24, diacerein vs placebo", "value": "no statistically significant differences"}, {"measurement": "difference between the two groups in the incidence of patients complaining of adverse events", "setting": "[6]; diacerein vs placebo", "value": "No statistically significant difference"}, {"measurement": "patients reporting at least one adverse effect (AE), number", "setting": "[6]; during the study period", "value": 20, "unit": "patients"}, {"measurement": "patients reporting at least one adverse effect (AE), percent", "setting": "[6]; during the study period", "value": 54.1, "unit": "%"}, {"measurement": "symptomatic hypoglycemia", "setting": "[6]; even in patients with a marked improvement in HbA1c levels", "value": "not observed"}]}]}
